Source: patent US20110039763A1, “TARGETED ANTIMICROBIAL MOIETIES” (C3 JIAN, INC., priority 2009, published 2011)
“Also recorded” adds a separate entry of the source.

System: microorganisms
Experiment: Targeting peptide binding to target microorganisms (Tables 3, 10, 12)
Settings: peptide binding in aqueous buffers that varied with peptide solubility; preferably 1x PBS
Text: In certain embodiments, the targeting moiety comprises one or more targeting peptides that bind particular bacteria, fungi, and/or yeasts, and/or algae, and/or viruses and/or that bind particular groups of bacteria, and/or groups of fungi, and/or groups of yeasts, and/or groups of algae.
In certain embodiments the targeting peptides include peptides comprising or consisting of one or more of the amino acid sequences shown in Table 3 (SEQ ID NOs:13-1566). In various embodiments the peptides include peptides comprising or consisting of the retro, inverso, retro-inverso, and/or beta form of one or more of the amino acid sequences shown in Table 3. Also contemplated are circular permutations of these sequences as well as peptides comprising or consisting of the retro, inverso, retro-inverso, and/or beta form of such circular permutations.
In certain embodiments the targeting peptide can comprise one or more domains capable of binding, specifically binding, or preferentially binding to a microorganism, e.g., a target microbial organism (see, e.g., Table 3). In certain embodiment, the targeting peptide be identified via screening peptide libraries. For example, a phage display peptide library can be screened against a target microbial organism or a desired antigen or epitope thereof. Any peptide identified through such screening can be used as a targeting peptide for the target microbial organism.

Substance	Target(s) (microorganism bound by the targeting peptide)
1T-3 (VLGIAGGLDAYGELVGGN; Peptide with targeting and/or antimicrobial activity)	S. mutans; also recorded: S. gordonii
1T-4 (LDAYGELVGGN; Peptide with targeting and/or antimicrobial activity)	S. gordonii; also recorded: S. sanguinis; also recorded: S. oralis; also recorded: V. atypica; also recorded: L. casei; also recorded: S. mutans
1T-6 (KFINGVLSQFVLERK; Peptide with targeting and/or antimicrobial activity)	S. mutans
1T-7 (SQRIIEPVKSPQPYPGFSVS; Peptide with targeting and/or antimicrobial activity)	M. xanthus
1T-8 (FSVAACGEQRAVTFVLLIEDLI; Peptide with targeting and/or antimicrobial activity)	M. xanthus
1T-9 (WAWAESPRCVSTRSNIHALAFRVEVAALT; Peptide with targeting and/or antimicrobial activity)	M. xanthus
1T-10 (SPAGLPGDGDEA; Peptide with targeting and/or antimicrobial activity)	M. xanthus
1T-11 (RISE; Peptide with targeting and/or antimicrobial activity)	S. mutans; also recorded: S. epidermidis; also recorded: P. aeruginosa
1T-12 (FGNIFKGLKDVIETIVKWTAAK; Peptide with targeting and/or antimicrobial activity)	C. xerosis; also recorded: C. striatum; also recorded: S. epidermidis; also recorded: S. mutans
1T-13 (FRSPCINNNSLQPPGVYPAR; Peptide with targeting and/or antimicrobial activity)	S. aureus; also recorded: S. epidermidis; also recorded: P. aeruginosa
1T-14 (ALAGLAGLISGK; Peptide with targeting and/or antimicrobial activity)	S. mutans; also recorded: S. aureus; also recorded: S. epidermidis; also recorded: C. xerosis
1T-15 (DVILRVEAQ; Peptide with targeting and/or antimicrobial activity)	S. mutans
1T-16 (IDMR; Peptide with targeting and/or antimicrobial activity)	P. aeruginosa
1T-17 (NNAIVYIS; Peptide with targeting and/or antimicrobial activity)	S. mutans
1T-18 (YSKTLHFAD; Peptide with targeting and/or antimicrobial activity)	S. aureus; also recorded: S. epidermidis; also recorded: C. striatum; also recorded: P. aeruginosa
1T-19 (PGAFRNPQMPRG; Peptide with targeting and/or antimicrobial activity)	S. aureus; also recorded: S. epidermidis; also recorded: P. aeruginosa
1T-20 (PALVDLSNKEAVWAVLDDHS; Peptide with targeting and/or antimicrobial activity)	S. mutans; also recorded: P. aeruginosa
1T-21 (YVEEAVRAALKKEARISTEDTPVNLPSFDC; Peptide with targeting and/or antimicrobial activity)	S. mutans; also recorded: P. aeruginosa
1T-22 (VPLDDGTRRPEVARNRDKDRED; Peptide with targeting and/or antimicrobial activity)	S. epidermidis; also recorded: P. aeruginosa

Substance	Target(s) (microorganism bound by the targeting peptide)
1T-23 (PALVDLSNKEAVWAVLDDHS; Peptide with targeting and/or antimicrobial activity)	S. mutans; also recorded: P. aeruginosa
1T-24 (EEAEEKLAEVSQAVKRLVR; Peptide with targeting and/or antimicrobial activity)	P. aeruginosa
1T-25 (VGLDVSVLVLFFGLQLLSVLLGAMIR; Peptide with targeting and/or antimicrobial activity)	S. aureus; also recorded: S. epidermidis; also recorded: C. xerosis; also recorded: C. striatum; also recorded: P. aeruginosa
1T-26 (LTILPTTFFAIIVPILAVAFIAYSGFKIKGIVEHKDQW; Peptide with targeting and/or antimicrobial activity)	S. mutans; also recorded: S. aureus; also recorded: S. epidermidis; also recorded: C. jeikeium; also recorded: C. xerosis; also recorded: C. striatum; also recorded: P. aeruginosa
1T-27 (ALFVSLEQFLVVVAKSVFALCHSGTLS; Peptide with targeting and/or antimicrobial activity)	S. mutans; also recorded: S. aureus; also recorded: S. epidermidis; also recorded: C. jeikeium; also recorded: C. xerosis; also recorded: C. striatum; also recorded: P. aeruginosa
1T-28 (VSRDEAMEFIDREWTTLQPAGKSHA; Peptide with targeting and/or antimicrobial activity)	P. aeruginosa
1T-29 (GSVIKKRRKRMSKKKHRKMLRRTRVQRRKLGK; Peptide with targeting and/or antimicrobial activity)	S. epidermidis; also recorded: C. jeikeium; also recorded: C. xerosis; also recorded: C. striatum; also recorded: P. aeruginosa; also recorded: S. mutans; also recorded: S. aureus
1T-30 (GKAKPYQVRQVLRAVDKLETRRKKGGR; Peptide with targeting and/or antimicrobial activity)	S. aureus; also recorded: S. epidermidis; also recorded: C. xerosis; also recorded: C. striatum; also recorded: P. aeruginosa
1T-31 (NATGTDIGEVTLTLGRFS; Peptide with targeting and/or antimicrobial activity)	S. mutans; also recorded: P. aeruginosa
1T-32 (VSFLAGWLCLGLAAWRLGNA; Peptide with targeting and/or antimicrobial activity)	S. mutans
1T-33 (VRTLTILVIFIFNYLKSISYKLKQPFENNLAQSMISI; Peptide with targeting and/or antimicrobial activity)	S. aureus; also recorded: S. epidermidis; also recorded: C. jeikeium; also recorded: C. xerosis; also recorded: C. striatum; also recorded: P. aeruginosa
1T-34 (AFWLNILLTLLGYIPGIVHAVYIIAKR; Peptide with targeting and/or antimicrobial activity)	S. aureus; also recorded: S. epidermidis; also recorded: C. jeikeium; also recorded: C. xerosis; also recorded: C. striatum; also recorded: P. aeruginosa
1T-35 (EICLTLVFPIRGSYSEAAKFPVPIHIVEDGTVELPK; Peptide with targeting and/or antimicrobial activity)	P. aeruginosa
1T-36 (VYRHLRFIDGKLVEIRLERK; Peptide with targeting and/or antimicrobial activity)	S. aureus; also recorded: S. epidermidis; also recorded: C. jeikeium; also recorded: C. xerosis; also recorded: C. striatum; also recorded: P. aeruginosa
1T-37 (YIVGALVILAVAGLIYSMLRKA; Peptide with targeting and/or antimicrobial activity)	S. mutans; also recorded: S. aereus; also recorded: S. epidermidis; also recorded: C. jeikeium; also recorded: C. xerosis; also recorded: C. striatum; also recorded: P. aeruginosa
1T-38 (VMFVLTRGRSPRPMIPAY; Peptide with targeting and/or antimicrobial activity)	S. mutans; also recorded: S. aereus; also recorded: S. epidermidis; also recorded: C. jeikeium; also recorded: C. xerosis; also recorded: C. striatum; also recorded: P. aeruginosa
1T-39 (FGFCVWMYQLLAGPPGPPA; Peptide with targeting and/or antimicrobial activity)	S. mutans; also recorded: P. aeruginosa
1T-40 (QRVSLWSEVEHEFR; Peptide with targeting and/or antimicrobial activity)	S. mutans; also recorded: P. aeruginosa
1T-41 (KRGSKIVIAIAVVLIVLAGVWVW; Peptide with targeting and/or antimicrobial activity)	S. mutans; also recorded: S. aureus; also recorded: S. epidermidis; also recorded: C. jeikeium; also recorded: C. striatum; also recorded: P. aeruginosa
